Test results as given in patent publication US20210180080A1, “USE OF ALS MUTANT PROTEIN AND THE GENE THEREOF IN PLANT BREEDING BASED ON GENE EDITING TECHNOLOGY” (priority 2018, published 2021).

Key:
Type in all cases: in vivo
[1] = test system: transgenic lines A1-A58 of rice Nanjing 9108; assay: herbicide screening of T1 generation transgenic lines; details: 210 g (a.i.) hm^−2, investigated after 14 days
Protocol: The T0 generation plants were harvested as an individual plant, and the harvested seeds were germinated and sown at a density of 450 kg hm^−2. When the rice growed to two leaves and one heart, the water was drained from the field and imazethapyr (aqueous agent, purchased from Nanjing Aijin Agrochemical Co., Ltd.) was sprayed at 210 g (a.i.) hm^−2. Rehydrate after spraying for 24 h, and investigate resistance after 14 days. Plants with all withered or dead leaves were susceptibleness, while the healthy and viable plants were resistance. […] Therefore, the frequency of obtaining herbicide resistant strains in this study was 1.72%. According to reports, the mutation frequency of herbicide resistant rice lines obtained by chemical mutagenesis was 0.00003^˜0.006%.

[2] = test system: Mutant A51 rice (ALS amino acid 628 glycine to tryptophan); assay: herbicide resistance identification by spraying rice seedlings, mutant; details: investigated 14 days later
Source text: (§1) The homozygous mutant T1 individual plants identified in Examples 2 and 3 were propagated, and the seeds were harvested in the artificial climate room of Nanjing Jiangsu Academy of Agricultural Sciences, which were the T2 generation; the T2 generation was continued to be propagated to obtain T3 Generation seeds. After accelerating the germination of the harvested T3 seeds, they were sown at a density of 450 kg hm^−2. When the rice growed to two leaves and one heart, the field water was drained and imazethapyr (aqueous agent, purchased from Nanjing Aijin Agrochemical Co., Ltd.) was sprayed at 210, 700, and 1400 g(a.i.) hm^−2 concentrations, respectively, with the water as the control group. After spraying for 24 h, the water was rehydrated, and the resistance was investigated 14 days later.
(§2) After accelerating germination of the T3 generation seeds in Example 4, they were sown at a density of 450 kg hm^−2. When the rice growed to two leaves and one heart, water in the field water was drained and Bailongtong (aqueous agent, purchased from Nanjing Aijin Agrochemical Co., Ltd.) was sprayed at 240, 2400, 4800 g(ai) hm^−2 concentration with water as the control group. After spraying for 24 h, the water was rehydrated, and the resistance was investigated 14 days later.

[3] = test system: wild-type rice Nanjing 9108; assay: herbicide resistance identification by spraying rice seedlings, wild type; details: investigated 14 days later
Source text: as §1, §2

[4] = 210 g(a.i.) hm^−2 sprayed at two leaves and one heart
[5] = 210 g(a.i.) hm^−2 sprayed at two leaves and one heart, listed as Imazethapyr

`CCc1cnc(C2=NC(C)(C(C)C)C(=O)N2)c(C(=O)O)c1` (stereo not drawn) [imazethapyr] was tested, and the “resistance of A51 line plants after spraying” value ([1]; A51 line, T1 generation) was “survived and showed herbicide resistance”, the “resistance of the other 57 lines after spraying” value ([1]; the other 57 of lines A1-A58, T1 generation) was “died” and the “resistance (survival) of mutant plants after spraying” value [2, 4] was “could survive”. The “resistance (survival) of mutant plants after spraying” value [2, 5] was “still grow and develop normally”, the “resistance (survival) of mutant plants after spraying” value ([2]; 240 g(ai) hm^−2 sprayed at two leaves and one heart) was “survived” and the “resistance (survival) of mutant plants after spraying” value ([2]; 700 g(a.i.) hm^−2 sprayed at two leaves and one heart, T3 generation) was “could survive”. For the same compound, the “resistance (survival) of mutant plants after spraying” value ([2]; 1400 g(a.i.) hm^−2 sprayed at two leaves and one heart, T3 generation) was “could survive”, the “resistance (survival) of mutant plants after spraying” value ([2]; 2400 g(ai) hm^−2 sprayed at two leaves and one heart, T3 generation) was “survived” and the “resistance (survival) of wild-type plants after spraying” value [3, 4] was “all died”. The “resistance (survival) of wild-type plants after spraying” value [3, 5] was “appear to die in whole”, the “resistance (survival) of wild-type plants after spraying” value ([3]; 700 g(a.i.) hm^−2 sprayed at two leaves and one heart) was “all died” and the “resistance (survival) of wild-type plants after spraying” value ([3]; 1400 g(a.i.) hm^−2 sprayed at two leaves and one heart) was “all died”.
